{"source": "patent US20240148835A1", "about": "“TREATING DISORDERS ASSOCIATED WITH DYRK1A DYSFUNCTION” (UNIVERSITY OF FLORIDA RESEARCH FOUNDATION, INCORPORATED, priority 2021, published 2024)", "key": {"Dyrk1a cHets": {"tested_on": "Dyrk1a cHets", "assay": "Chronic (1-3)IGF-1 treatment from P14: behavioral battery", "assay_type": "in vivo, mouse", "source_text": "To determine whether chronic (1-3)IGF-1 administration ameliorates ASD-relevant behaviors, we conducted a behavioral battery to assay sociability and repetitive behaviors as well as locomotion, anxiety-like behavior, acoustic startle, and sensorimotor gating. […] Taken together, (1-3)IGF-1 treatment ameliorates morphological, neuronal, and behavioral deficits caused by cortical Dyrk1a mutations.\n(§1) (1-3)IGF-1 was acquired from VWR/Bachem (catalog #H-2468.1000) and dissolved in saline with 0.01% BSA fresh every day. Intraperitoneal injections of 10 mg kg′ (1-3)IGF-1 or vehicle were delivered daily at 8 a.m. starting on P14 and ending on P85. […] The S6K1 inhibitor PF-4708671 was acquired from Medkoo Biosciences (#406432) dissolved in 10% DMSO, 10% tween 80 and 80% water. (1-3)IGF-1 (10 mg kg′) and PF-4708671 (50 mg kg^−1) or vehicle were injected subcutaneously into pups from P0 to P7. Rapamycin was acquired from LC laboratories (R-5000) and dissolved in 4% ethanol, 5% tween-80, and 5% PEG400 in PBS. (1-3)IGF-1 (10 mg kg′) and Rapamycin (1 mg kg′) or vehicle were injected subcutaneously into pups from P0 to P7. SB216763 was acquired from TOCRIS (#1616) and dissolved in 5% DMSO and 0.9% saline in dH20. SB216763 (0.5 mg kg′) was injected subcutaneously into pups from P0 to P7.\n3 chamber social approach: Briefly, after at least 2 weeks housing under reversed light cycle, each mouse was habituated in the three-chamber box for 5 minutes before a stimulus mouse was placed into a tube in the “social” chamber. The stimulus mice used were young adult male mice. The time spent in each chamber (“mouse+tube”, “empty tube”, “center”) was hand-scored for sniffing time using Boris.\nMarble burying: Male mice were placed individually in a cage with 5 cm of ¼″ corncob bedding and 20 black marbles (14.3 mm in diameter) arranged in a 4×5 matrix and left undisturbed for 30 min. The number of marbles that were at least two-thirds buried at the end of the trial were counted. […]"}, "[1]": {"tested_on": "protein synthesis in the mPFC of cHets", "assay": "SUnSET puromycin incorporation assay (protein synthesis) in mPFC after (1-3)IGF-1 treatment", "assay_type": "in vivo, mouse", "description": "Protein synthesis is a critical output of mTOR signaling, particularly downstream of P70 Ribosomal S6 Kinase (S6K1).\nas §1\n300 μm coronal prefrontal cortical slices were obtained from postnatal day 7 (P7) and adult mice. Slices were allowed to recover in artificial cerebrospinal fluid (in mM: 124 NaCl, 2.8 KCl, 2 CaCl2, 1.25 NaH2P04, 1.25 MgSO4, 26 NaHCO3, 10 Dextrose) for 2 h at 32° C. Puromycin (5 μg ml-1) was applied to slices for 40 min at 32° C. to label newly synthesized proteins. Slices were then snap frozen on dry ice and stored at −80° C. until used. Protein (50 μg) was loaded on 4-12% gradient gels, transferred onto polyvinylidene difluoride membranes, and probed with anti-puromycin antibody (1:5,000, Millipore, MABE343). Anti-mouse HRP-tagged secondary antibody was used and chemiluminiscence was developed using standard ECL reagents. Quantification was done by measuring intensity of each lane from 14 to 191 kDa, subtracting it from the intensity of the unlabeled lane and normalized to loading control."}, "[2]": {"conditions": "3-chamber social approach, cHets"}}, "note": "Entries after “also recorded” stand apart in the source; their conditions may differ.", "data": [{"substance": "(1-3)IGF-1: a tripeptide cleaved from the N-terminus of IGF-1; acquired from VWR/Bachem, CAS No. 32302-76-4 (GPE; Insulin-like growth factor 1; UniProt P05019 49-51, looked up, fragment)", "values": [{"measurement": "preference index", "setting": "Dyrk1a cHets; [2]", "value": "restored"}, {"measurement": "social interaction time (hand-scored)", "setting": "Dyrk1a cHets; [2]", "value": "increased"}, {"measurement": "social deficit of cHets (time interacting with stimulus mouse, preference index)", "setting": "Dyrk1a cHets; 3-chamber social approach, cHets, daily from P14", "value": "restored this social deficit in cHets"}, {"measurement": "sociability of controls", "setting": "Dyrk1a cHets; 3-chamber social approach, controls", "value": "did not impact controls"}, {"measurement": "preference for stimulus mouse vs inanimate object within group, 3-chamber social approach", "setting": "Dyrk1a cHets; all genotype X treatment groups", "value": "significant preference for interaction with a stimulus mouse; also recorded: significant preference for social interaction"}, {"measurement": "number of marbles buried by cHets", "setting": "Dyrk1a cHets; marble burying, cHets", "value": "no effect; also recorded: subtle modification of the phenotype"}, {"measurement": "qualitative interaction with the marbles", "setting": "Dyrk1a cHets; marble burying, cHets", "value": "qualitatively interaction with the marbles increased in cHets"}, {"measurement": "puromycin incorporation (protein synthesis) in adult cHets", "setting": "[1]; adult, chronic treatment", "value": "significantly increased; also recorded: restores decreased protein synthesis"}, {"measurement": "puromycin incorporation in adult controls", "setting": "[1]; adult, relative to vehicle-treated controls", "value": "significant decrease in puromycin incorporation"}, {"measurement": "puromycin incorporation (protein synthesis) in neonatal cHets", "setting": "[1]; daily treatment from P0 to P7", "value": "increased puromycin abundance; also recorded: restores decreased protein synthesis"}, {"measurement": "puromycin incorporation in neonatal controls", "setting": "[1]; daily treatment from P0 to P7", "value": "without impacting controls"}]}]}
